Measurements: patent US6831069B2, “Pyrrolo[2,3-d]pyrimidine nucleoside analogs” (priority 1999, dated 2004)
Structures can show the parent of a compound that is named as a salt.

Assays:
B10.PL (H-2u) mice = test: Murine EAE model of multiple sclerosis, prophylactic treatment; format: in vivo, mouse; conditions: 0.1 mg/kg IP daily for 10d before induction of disease
[1] = system: BALB/c and C57BL/6 lymph node CD4+ T cells; test: Generation of murine Th1 cells, IL-4 and IFNγ ELISA after restimulation; format: cell-based, mouse; conditions: murine CD4+ cells induced with IL-2, IFN-γ, IL-12; BALB/c and C57BL/6; versus without compound
PHA stimulated T-cells = test: Type 1 and Type 2 cytokines in PHA stimulated T-cells; format: cell-based, human; conditions: FIG. 24
[2] = system: Human Prostate cancer cells, HTB81; test: IL-8 secretion, IL-8 Elisa Assay; format: cell-based; conditions: concentrations indicated in FIG. 12
Description: The compound 23a(5′-R) and 23a(5′-S) indicate an inhibitory effect on secretion of Interleukin-8 (IL-8) from human prostate cancer cells, HTB81. IL-8 belongs to the class of chemo-attractant chemokines (type alpha), which are involved in inflammation processes due to attraction of neutrophils. Chemokines, in general, are known to be produced by various types of cancer. It is proven in several studies that inhibition of chemokine production by cancer cells is beneficial for the host. […] The medium collected from the culture was analyzed for IL-8 level using IL-8 Elisa Assay from R&D Systems.

[3] = system: Human Prostate cancer cells, HTB81; test: VEGF secretion, VEGF Elisa Assay; format: cell-based; conditions: 72 hrs treatment
Procedure: The compounds 23a(5′-R) and 23a(5′-S) are potent in inhibition of secretion of Vascular Endothelial Growth Factor (VEGF) from Human Prostate cancer cells, HTB81. VEGF is recognized as angiogenesis marker since this molecule is crucial for migration and growth of endothelial cells and microvessel formation in vivo. […] The compounds were applied just after plating for 72 hrs. After that, the medium was collected and the level of VEGF was measured using VEGF Elisa Assay (R & D Systems) and expressed as pg of VEGF per ml of the medium.

activated human T cells = test: Analysis of cytokine mRNA (RT-PCR, Southern blot) in PMA-ION activated human T cells; format: cell-based; conditions: experiment corresponding to FIG. 18; FIG. 26

N=C(N)c1cn([C@@H]2O[C@H](CO)[C@H](O)C2O)c2nc[nH]c(=O)c12 (stereo partly drawn) [ICN 17739, 7-(β-D-ribofuranosyl)pyrrolo[2,3-d]-4-pyrimidone-5-carboxamidine Hydrochloride]
MBP-specific Th2 cytokine producing T-cells (B10.PL (H-2u) mice): induces MBP-specific Th2 cytokine producing T-cells
onset of murine EAE (B10.PL (H-2u) mice): clearly delayed onset
IFN-γ production of induced Th1 cells [1]: significantly decreased
IL-4 production of induced Th1 cells [1]: significantly increased
Type 1 cytokines (PHA stimulated T-cells): significant decrease
production of Type 2 cytokines (PHA stimulated T-cells): significant increase

C[C@H](O)[C@H]1O[C@@H](n2cc(C#N)c3c(N)ncnc32)[C@H](O)[C@@H]1O [23a(5′-S), 4-Amino-5-cyano-7-(5(S)-C-methyl-β-D-ribofuranosyl)pyrrolo[2,3-d]pyrimidine]
secretion of IL-8 [2]: inhibit secretion of IL-8 in a dose-dependent manner
secretion of VEGF [3]: inhibit secretion of VEGF in a dose-dependent manner

C[C@@H](O)[C@H]1O[C@@H](n2cc(C#N)c3c(N)ncnc32)[C@H](O)[C@@H]1O [23a(5′-R), 4-Amino-5-cyano-7-(5(R)-C-methyl-β-D-ribofuranosyl)pyrrolo[2,3-d]pyrimidine]
secretion of IL-8 [2]: inhibit secretion of IL-8 in a dose-dependent manner
secretion of VEGF [3]: inhibit secretion of VEGF in a dose-dependent manner

Cl.N=C(N)c1cn([C@@H]2O[C@H](CO)[C@@H](O)[C@H]2O)c2nc[nH]c(=O)c12 [ICN 17739, 7-(β-D-ribofuranosyl)pyrrolo[2,3-d]-4-pyrimidone-5-carboxamidine Hydrochloride]
anti-inflammatory and anti-proliferative responses (RNA expression) (activated human T cells): induction of anti-inflammatory and anti-proliferative responses
